Experimental data as given in PubChem BioAssay (NCI).
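96-well plates; 48 h exposure; 5 concentrations. Endpoints by linear interpolation between flanking doses. Not reached: highest tested concentration assigned. Definition used: TGI = concentration required for complete inhibition of growth.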

What was measured:
Test in all cases: NCI anticancer screen, dose series, 48 h
KM12 colon = system: KM12 colon
CAKI-1 renal = system: CAKI-1 renal
NCI-H226 lung = system: NCI-H226 lung
OVCAR-3 ovarian = system: OVCAR-3 ovarian
U251 CNS = system: U251 CNS
MDA-MB-435 = system: MDA-MB-435
K-562 leukemia = system: K-562 leukemia
HCC-2998 colon = system: HCC-2998 colon
HOP-92 NSCLC = system: HOP-92 NSCLC
SF-295 CNS = system: SF-295 CNS

Row | Compound | TGI (KM12 colon) | TGI (CAKI-1 renal) | TGI (NCI-H226 lung) | TGI (OVCAR-3 ovarian) | TGI (U251 CNS) | TGI (MDA-MB-435) | TGI (K-562 leukemia) | TGI (HCC-2998 colon) | TGI (HOP-92 NSCLC) | TGI (SF-295 CNS)
1 | N/C1=C/C(=O)NC(=O)c2c(c3ccccc3oc2=O)C1 | > 100 µM | > 100 µM | > 100 µM | > 100 µM | > 100 µM | > 100 µM | > 100 µM | > 100 µM | > 100 µM | 
2 | C/C(=N\Nc1nc2ccccc2s1)c1cc2ccccc2cn1 | 94.4 µM | 17.6 µM | 7.56 µM | 6.96 µM | > 100 µM | 72.8 µM |  | 27.2 µM | 93.6 µM | 19.3 µM
3 | CC1=CP(=O)(c2c(C(C)C)cc(C(C)C)cc2C(C)C)CCC1Cl (stereo unspecified) | 40.2 µM | 39.4 µM | 35.1 µM | 23.4 µM | 32.3 µM | 37.6 µM | 35.6 µM |  | 31 µM | 27.4 µM
4 | COc1ccc(NCC(=O)Nn2c(-c3ccccc3)nc3ccccc3c2=O)cc1 | > 100 µM |  | > 100 µM | > 100 µM | 87.1 µM | > 100 µM | > 100 µM | > 100 µM | > 100 µM | > 100 µM
5 | OC1COC2CC(Nc3ccccn3)OC12 (stereo unspecified) | > 100 µM | > 100 µM | > 100 µM | > 100 µM | > 100 µM | > 100 µM | > 100 µM | > 100 µM |  | > 100 µM
6 | NCCN1C(=O)c2ccccc2C1c1ccc(Cl)cc1 (stereo unspecified) | > 100 µM | > 100 µM |  | > 100 µM | > 100 µM | > 100 µM | > 100 µM | > 100 µM | > 100 µM | > 100 µM
7 | O=C1CN(c2cccc(Cl)c2)C(=O)CN1NCNN1CC(=O)N(c2cccc(Cl)c2)CC1=O | > 100 µM | > 100 µM |  | > 100 µM | > 100 µM | > 100 µM |  | > 100 µM | > 100 µM | > 100 µM
8 | CC1=C(C)CC2(C=C(C(C)(C)C)C(=O)C(C(C)(C)C)=C2)SC1 | 55 µM | 54.9 µM | 34.4 µM | 36.1 µM | 29.9 µM | 43.6 µM | > 100 µM |  | 47.7 µM | 31.4 µM
9 | COc1cc2c(/C=C3/C(=O)Nc4ccc(Cl)cc43)c(Cl)[nH]c2cc1C | 10 µM | 14.8 µM | 13.3 µM | 3.14 µM | 4.62 µM | 0.57 µM | 6.3 µM |  | 24.2 µM | 10.5 µM
10 | Cc1ccc2nc(-c3ccc(C(C)(C)C)cc3)oc(=O)c2c1 | 20.3 µM | 39.6 µM |  | 60.9 µM | 32.5 µM | 43 µM | 51 µM | 27.8 µM | 63.2 µM | 49 µM
11 | O=C(Nc1ccc(S(=O)(=O)/N=c2\ncccn2C(=O)C(C(F)(F)F)C(F)(F)F)cc1)C(C(F)(F)F)C(F)(F)F | > 100 µM | 0.242 µM | > 100 µM | > 100 µM | > 100 µM | > 100 µM | > 100 µM | > 100 µM |  | > 100 µM
12 | O=C(/C=C(\C(=O)c1cccs1)c1cccs1)c1ccc(C(=O)/C=C(\C(=O)c2cccs2)c2cccs2)cc1 | > 100 µM | > 100 µM | > 100 µM |  | > 100 µM | > 100 µM | > 100 µM | > 100 µM |  | > 100 µM
13 | COC(=O)C1(SC)C2CCC3C2CCC31 (stereo unspecified) |  | > 100 µM | > 100 µM | > 100 µM | > 100 µM | > 100 µM | > 100 µM | > 100 µM | > 100 µM | > 100 µM
14 | CC(C)(NC(=O)OCc1ccccc1)C(=O)OC(=O)C(C)(C)NC(=O)OCc1ccccc1 | > 100 µM | > 100 µM | > 100 µM | > 100 µM | > 100 µM | > 100 µM | > 100 µM |  | > 100 µM | > 100 µM
15 | O=C(Cn1c(C(=O)c2ccccc2)nc2ccccc21)c1ccccc1 | > 100 µM | > 100 µM | > 100 µM | > 100 µM | > 100 µM | > 100 µM |  | > 100 µM | > 100 µM | > 100 µM
16 | C=C1C(=O)O[C@H]2C[C@@H]1[C@@H](O)[C@H](O)[C@@H](C)CCCC(C)=CCC[C@@]2(C)O | > 100 µM | 22.3 µM |  | 28.5 µM | 64.5 µM | > 100 µM | > 100 µM | 60.5 µM | 99.5 µM | > 100 µM
17 | COC(=O)Nc1nc2ccc(S(=O)(=O)N3CCOCC3)cc2[nH]1 | > 100 µM | > 100 µM | > 100 µM | > 100 µM | > 100 µM | 89.3 µM | > 100 µM |  | > 100 µM | > 100 µM
